Assay results as given in patent US12473283B2, “Compounds and their use” (Debiopharm International S.A., priority 2019, dated 2025).
Converted amounts (≈) assume the structure as drawn. Read-outs that look alike come from different tables or passages of the source.

Columns and labels:
[1] = molecular target: FabI enzyme from Acinetobacter baumannii (Acinetobacter baumannii, UniProt D0CAD5); test: Inhibition of FabI enzyme, rate of NADH consumption; assay type: biochemical
Protocol: Inhibition of FabI enzyme from Acinetobacter baumannii and Escherichia coli was tested by measuring the rate of NADH consumption (Δabsorbance at 340 nm/min) at 30° C. in 96-well plate format using an automated plate reader in the presence or absence of the test compounds. The assay mixture contained 100 mM Tris-HCl, pH 7.25 (A. baumannii) or 7.5 (E. coli), 100 mM ammonium acetate, 0.02% (A. baumannii) or 0.05% (E. coli) Pluronic F-68, 25 μM crotonyl ACP, 50 μM NADH, 25 pM (A. baumannii) or 50 pM (E. coli) recombinant FabI protein, and 7.5% DMSO. Test compounds were added at concentrations ranging from 0.17 to 10,000 nM in a final well volume of 100 μl. This dose-response inhibitory assay was performed using a 10-point, serial dilution series for each test compound. IC50 values for each test compound were assigned from logistical sigmoid curve-fitting of the inhibition dose response curves.

[2] = test system: A. baumannii ATCC BAA1605; test: Broth microdilution MIC assay; assay type: cell-based; details: Acinetobacter baumannii, ATCCBAA1605; CA-MHB, 35° C., 20 hours
Protocol: (§1) The antibacterial activity of FabI inhibitors against select Gram-negative and Gram-positive bacterial species including susceptible and multi-drug resistant A. baumannii, E. coli, K. pneumoniae and S. aureus was tested using the broth microdilution Minimal Inhibitory Concentration (MIC) assay following CLSI guidelines for insoluble compounds. Test articles were serially diluted 2-fold in 100% dimethyl sulfoxide (DMSO) and then diluted 100-fold into cation adjusted Mueller-Hinton broth (CA-MHB) to achieve a 10-point test concentration range in 1% DMSO. Final compound concentrations were 0.016-8 μg/ml for S. aureus or 0.06-32 μg/ml for the Gram-negative species. MIC test plates were then prepared by transferring 100 μl of the final assay medium (test article in CA-MHB, 1% DMSO) into the appropriate wells of a sterile, low binding 96-well polystyrene plate. Direct colony suspension inoculums of the test strains were freshly prepared per CLSI guidelines, and the appropriate test wells were inoculated to achieve a final bacterial cell density of 5×10^5 CFU/ml. Growth control (no test article) and negative control (no bacterial inoculum) wells were also included. Exposure to light was minimized during all stages of assay preparation. […] Bacterial growth was then determined by measuring the optical density at 600 nm (OD600) using a SpectraMax Plus plate-reader spectrophotometer.

E. coli AG100 = test: Broth microdilution MIC assay; assay type: cell-based; details: Escherichia coli, CA-MHB, 35° C., 20 hours
Protocol: as §1

K. pneumoniae A6030827 = test: Broth microdilution MIC assay; assay type: cell-based; details: Klebsiella pneumoniae, CA-MHB, 35° C., 20 hours
Protocol: as §1

S. aureus ATCC 29213 = test: Broth microdilution MIC assay; assay type: cell-based; details: Staphylococcus aureus, ATCC29213; CA-MHB, 35° C., 20 hours
Protocol: as §1

[3] = test system: Acinetobacter baumannii ATCC 17978; test: Mouse thigh infection model; assay type: in vivo, BALB/c mice; details: 3 mg/kg q12h SC
Protocol: (§2) Groups of 5 female specific-pathogen-free BALB/c mice weighing 18±2 g were used. In the 24 hr model (bacterial counts determined 24 hr after treatment start), mice were rendered neutropenic with cyclophosphamide intraperitoneal (IP) administration conducted at Days −4 (150 mg/kg), and day −1 (100 mg/kg). In the 72 hr model (bacterial counts determined 72 hr after treatment start), animals were rendered persistently neutropenic for the duration of the infection period with cyclophosphamide intraperitoneal (IP) administration conducted at Days −4 (150 mg/kg), −1 (100 mg/kg) and +1 (100 mg/kg). Persistent neutropenia is required to prevent pathogen clearance from thigh tissue in the 74 hr model. Nutritional supplementation (diet gel) plus saline SC injections were provided daily to help animals tolerate the cyclophosphamide treatment.
On day 0, animals were inoculated intramuscularly (0.1 ml/thigh) with a 1.67×10^4 inoculum count of Acinetobacter baumannii ATCC 17978. Vehicle control (40% Captisol), positive control (tigecycline) or test substances were then administered 2 hr post infection by the subcutaneous (SC) route of administration. Each dosing group consisted of 5 female mice. The MICs of the compounds against the test strain were 8 μg/ml, 2 μg/ml and […] for compound 201, compound 71 and compound 200, respectively. At 26 or 74 hours after inoculation (24 or 72 hr after treatment initiation), animals were euthanized with CO2 asphyxiation and the thigh tissue harvested from each of the test animals. The tissues were homogenized in 3 mL of PBS, pH 7.4 with a homogenizer. Homogenates, 0.1 mL, were used for serial 10-fold dilutions and plated onto NB agar for colony counts. Efficacy is calculated as the change in log CFU/g thigh vs. the time 0 (treatment initiation) control.

A. baumannil ATCC 17978 = test: Mouse lung infection model; assay type: in vivo, BALB/c mice; details: 3 mg/kg q12h SC
Protocol: as §2, with “lung” for “thigh”
On day 0, animals were anesthetized with etomidate-lipuro emulsion (20 mg/10 mL; 20 mg/kg dose, IV) and then inoculated intranasally with an A. baumannil ATCC 17978 suspension, 1.36×10^5 CFU/mouse, 0.02 mL/mouse. Vehicle control (40% Captisol), positive control (tigecycline) or test substances were then administered 2 hr post infection by the subcutaneous (SC) route of administration. Each dosing group consisted of 5 female mice. The MICs of the compounds against the test strain were 8 μg/ml and 0.5 μg/ml for compound 201 and compound 200, respectively. At 26 or 74 hours after inoculation (24 or 72 hr after treatment initiation), animals were euthanized with CO2 asphyxiation and the lung tissue harvested from each of the test animals. The tissues were homogenized in 1 ml of PBS, pH 7.4 with a homogenizer. Homogenates, 0.1 mL, were used for serial 10-fold dilutions and plated onto MacConkey II agar for colony counts. Efficacy is calculated as the change in log CFU/g […] vs. the time 0 (treatment initiation) control.

[4] = recombinant FabI, 30° C., pH 7.25, read-out: A. baumannii Fabl IC50
[5] = total daily dose 6 mg/kg, 24 hr treatment
[6] = total daily dose 6 mg/kg, 72 hr treatment

Sequence of FabI enzyme from Acinetobacter baumannii (D0CAD5 entry or part of it): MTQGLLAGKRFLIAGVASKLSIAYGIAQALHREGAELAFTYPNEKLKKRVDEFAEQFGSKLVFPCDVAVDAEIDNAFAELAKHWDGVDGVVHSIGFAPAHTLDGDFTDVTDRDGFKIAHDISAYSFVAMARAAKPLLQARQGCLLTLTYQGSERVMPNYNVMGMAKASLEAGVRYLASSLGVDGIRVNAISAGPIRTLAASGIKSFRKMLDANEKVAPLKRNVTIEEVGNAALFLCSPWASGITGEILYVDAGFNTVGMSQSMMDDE

`Cc1c(CN(C)C(=O)/C=C/c2cnc3c(c2)CC[C@H](N)C(=O)N3)oc2c(Cl)cccc12.Cl` (single isomer, unassigned) [Compound 98, hydrochloride] showed an IC50 [1] of under 10 nM.
`Cc1c(CN(C)C(=O)/C=C/c2cnc3c(c2)CC[C@H](N)C(=O)N3)oc2c(Cl)cccc12.Cl` (single isomer, unassigned) [Compound 98] was tested, and the MIC [2] was at most 4 µg/mL, the MIC (E. coli AG100) was at most 4 µg/mL and the MIC (K. pneumoniae A6030827) was at most 4 µg/mL. The MIC (S. aureus ATCC 29213) was at most 4 µg/mL.
`Cc1c(CN(C)C(=O)/C=C/c2cnc3c(c2)CC[C@H](N)C(=O)N3)oc2c(F)cccc12.Cl` (single isomer, unassigned) [Compound 107, hydrochloride] gave an IC50 [1] of under 10 nM.
With `Cc1c(CN(C)C(=O)/C=C/c2cnc3c(c2)CC[C@H](N)C(=O)N3)oc2c(F)cccc12.Cl` (single isomer, unassigned) [Compound 107] the MIC [2] was at most 4 µg/mL, the MIC (E. coli AG100) was at most 4 µg/mL and the MIC (K. pneumoniae A6030827) was at most 4 µg/mL. It also gave an MIC (S. aureus ATCC 29213) of at most 4 µg/mL.
`Cc1c(CN(C)C(=O)/C=C/c2cnc3c(c2)CC[C@H](N)C(=O)N3)sc2ccccc12.Cl` (single isomer, unassigned) [Compound 119] gave an MIC [2] of at most 4 µg/mL, an MIC (E. coli AG100) of at most 4 µg/mL and an MIC (K. pneumoniae A6030827) of at most 4 µg/mL. It also gave an MIC (S. aureus ATCC 29213) of at most 4 µg/mL.
Compound `Cc1c(CN(C)C(=O)/C=C/c2cnc3c(c2)CC[C@H](N)C(=O)N3)oc2cccc(F)c12.Cl` (single isomer, unassigned) [Compound 130, hydrochloride] has an IC50 [1] of under 10 nM.
For `Cc1c(CN(C)C(=O)/C=C/c2cnc3c(c2)CC[C@H](N)C(=O)N3)oc2cccc(F)c12.Cl` (single isomer, unassigned) [Compound 130], the MIC [2] was at most 4 µg/mL, the MIC (E. coli AG100) was at most 4 µg/mL and the MIC (K. pneumoniae A6030827) was at most 4 µg/mL. The MIC (S. aureus ATCC 29213) was at most 4 µg/mL.
With `Cc1c(CN(C)C(=O)/C=C/c2cnc3c(c2)CC[C@H](N)C(=O)N3)sc2c(F)cccc12.Cl` (single isomer, unassigned) [Compound 140, hydrochloride] the IC50 [1] was under 10 nM.
For `Cc1c(CN(C)C(=O)/C=C/c2cnc3c(c2)CC[C@H](N)C(=O)N3)sc2c(F)cccc12.Cl` (single isomer, unassigned) [Compound 140], the MIC [2] was at most 4 µg/mL, the MIC (E. coli AG100) was at most 4 µg/mL and the MIC (K. pneumoniae A6030827) was at most 4 µg/mL. The MIC (S. aureus ATCC 29213) was at most 4 µg/mL.
`Cc1c(CN(C)C(=O)/C=C/c2cnc3c(c2)CC[C@H](N)C(=O)N3)oc2ccc(Oc3cccnc3)cc12.Cl` (single isomer, unassigned) [Compound 151, hydrochloride] showed an IC50 [1] of under 10 nM.
`Cc1c(CN(C)C(=O)/C=C/c2cnc3c(c2)CC[C@H](N)C(=O)N3)oc2ccc(Oc3cccnc3)cc12.Cl` (single isomer, unassigned) [Compound 151] showed an MIC (E. coli AG100) of at most 4 µg/mL, an MIC (K. pneumoniae A6030827) of at most 4 µg/mL and an MIC (S. aureus ATCC 29213) of at most 4 µg/mL.
`Cc1c(CN(C)C(=O)/C=C/c2cnc3c(c2)CC[C@H](N)C(=O)N3)oc2cccc(CNc3cccnc3)c12.Cl.Cl` (single isomer, unassigned) [Compound 167, dihydrochloride] showed an IC50 [1] of under 10 nM.
`Cc1c(CN(C)C(=O)/C=C/c2cnc3c(c2)CC[C@H](N)C(=O)N3)oc2cccc(CNc3cccnc3)c12.Cl.Cl` (single isomer, unassigned) [Compound 167] gave an MIC [2] of at most 4 µg/mL, an MIC (E. coli AG100) of at most 4 µg/mL and an MIC (K. pneumoniae A6030827) of at most 4 µg/mL. It also gave an MIC (S. aureus ATCC 29213) of at most 4 µg/mL.
`CC(=O)NC1CNc2cc(/C=C/C(=O)N(C)Cc3oc4ccccc4c3C)cnc2NC1=O` (stereo not shown) [Compound 42, (E)-3-(3-acetamido-4-oxo-2,3,4,5-tetrahydro-1H-pyrido[2,3-b][1,4]diazepin-8-yl)-N-methyl-N-((3-methylbenzofuran-2-yl)methyl)acrylamide] gave an MIC [2] of at most 4 µg/mL and an MIC (S. aureus ATCC 29213) of at most 4 µg/mL.
`Cc1c(CN(C)C(=O)/C=C/c2cnc3c(c2)N[C@H](C)[C@H](N)C(=O)N3)oc2ccccc12` [Compound 52, (E)-3-((2R,3S)-3-amino-2-methyl-4-oxo-2,3,4,5-tetrahydro-1H-pyrido[2,3-b][1,4]diazepin-8-yl)-N-methyl-N-((3-methylbenzofuran-2-yl)methyl)acrylamide] showed an IC50 [1, 4] of under 10 nM, an MIC [2] of at most 4 µg/mL and an MIC (E. coli AG100) of at most 4 µg/mL. The MIC (S. aureus ATCC 29213) was at most 4 µg/mL.
With `Cc1oc2c(N)cccc2c1CN(C)C(=O)/C=C/c1cnc2c(c1)N[C@H](C)[C@H](N)C(=O)N2` [Compound 62, (E)-3-((2R,3S)-3-amino-2-methyl-4-oxo-2,3,4,5-tetrahydro-1H-pyrido[2,3-b][1,4]diazepin-8-yl)-N-((7-amino-2-methylbenzofuran-3-yl)methyl)-N-methylacrylamide] the IC50 [1, 4] was under 10 nM, the MIC [2] was at most 4 µg/mL and the MIC (E. coli AG100) was at most 4 µg/mL. The MIC (S. aureus ATCC 29213) was at most 4 µg/mL.
For `Cc1c(CN(C)C(=O)/C=C/c2cnc3c(c2)CCC(N2CCN(S(C)(=O)=O)CC2)C(=O)N3)oc2ccccc12` (stereo not shown) [Compound 187, (E)-N-methyl-N-((3-methylbenzofuran-2-yl)methyl)-3-(7-(4-(methylsulfonyl)piperazin-1-yl)-8-oxo-6,7,8,9-tetrahydro-5H-pyrido[2,3-b]azepin-3-yl)acrylamide], the IC50 [1, 4] was under 10 nM, the MIC [2] was at most 4 µg/mL and the MIC (E. coli AG100) was 16 µg/mL (≈ 29 µM). The MIC (S. aureus ATCC 29213) was at most 4 µg/mL.
`CN(C)c1cc(NC(=O)CNC(C)(C)C)c(O)c2c1C[C@H]1C[C@H]3[C@H](N(C)C)C(O)=C(C(N)=O)C(=O)[C@@]3(O)C(O)=C1C2=O` [Tigecycline, reference compound] was tested, and the “Mean Change log CFU/g thigh 24 hr” value ([3]; 24 hr, vs. time 0 control) was −2.48 log CFU/g thigh, the “Mean Change log CFU/g thigh 72 hr” value ([3]; 72 hr, vs. time 0 control) was −3.48 log CFU/g thigh and the “Mean Log CFU/g thigh 24 hr” value [3, 5] was 2.37 log CFU/g thigh. For the same compound, the “Mean Log CFU/g thigh 72 hr” value [3, 6] was 1.36 log CFU/g thigh, the “Mean change log CFU/g lung 24 hr” value (A. baumannil ATCC 17978; 24 hr, vs. time 0 control) was −3.44 log CFU/g lung and the “Mean change log CFU/g lung 72 hr” value (A. baumannil ATCC 17978; 72 hr, vs. time 0 control) was −4.74 log CFU/g lung. For the same compound, the “Mean Log CFU/g lung 24 hr” value (A. baumannil ATCC 17978; [5]) was 2.87 log CFU/g lung and the “Mean Log CFU/g lung 72 hr” value (A. baumannil ATCC 17978; [6]) was 1.57 log CFU/g lung.
